# Measured values: patent publication US7833795B2, “Assessment of cardiovascular risk using isoprostane biomarkers and COX-2 selective inhibitors” (The Trustees of the University of Pennsylvania, priority 2004, dated 2010)
# Columns and labels:
# Assay type in all cases: in vivo, rat
# [1] = test system: Male Fisher 344 rats; test: Plasma TBARS after CCl4
# Method: (§1) Animals and treatment protocol: Male Fisher 344 rats (260-280 g) obtained from Charles River Laboratories (Raleigh, N.C.) were used in all experiments. The animals were housed three to a cage. Autoclaved hardwood bedding was used in solid-bottom polycarbonate cages with filter tops. Animal rooms were maintained at 20-25° C. with 35-70% relative humidity with alternating 12-hour light and dark cycles. The rats had free access to deionized, reverse-osmosis-treated water and received autoclaved NIH 31 rodent chow (Zeigler Bros., Gardners, Pa.) ad libitum. For all experiments, rats were fasted overnight and then administered intraperitoneal injections of carbon tetrachloride in canola oil. Control rats received an equal volume of canola oil. Fasting continued throughout the experiment. Rats were anesthetized with Nembutal (0.1 ml/100 g body weight) and 5 ml blood was removed from the dorsal aorta proximal to its bifurcation into the common iliac arteries.
# (§2) Carbon tetrachloride (CCL4) treatment: Animals from each of the three dose groups (Control-canola oil, 120 mg/kg CCl4 i.p. and 1200 mg/kg CCl4 i.p.) were investigated at three time points (2, 7, and 16 hours after CCl4 injection). Indomethacin-pretreated rats were also investigated at the same three time points, and the meclofenamic acid-pretreated rats were investigated at one time point (7 hours). Each group consisted of five rats for each analysis, except the meclofenamic acid pretreatment group which consisted of six rats. Animal treatment, sample preparation, assessment of liver histology and serum enzyme activities are described elsewhere (Kadiiska et al., 2000, Free Radic. Biol. Med. 28: 838-845; Jackson, 1989, J. Pharmacol. Exp. Ther. 250: 9-21) and were carried out at NIEHS, Research Triangle Park, N.C.
# Plasma sample preparation: Blood (5 ml) was drawn through single draw Vacutainer® needles (21 Gauge) into open Vacutainer® blood collection tubes containing heparin. The tubes were gently inverted 2-3 times for mixing and immediately placed on ice. Blood was centrifuged (2,000 rpm for 10 minutes at 4° C.) no more than 30 minutes after collection, and the plasma was collected, frozen on dry ice and stored at −70° C.
# Malondialdehyde (MDA) in plasma was measured using several different assays. In one assay in Experimental Example 1, free MDA and other thiobarbituric acid-reactive substances (TBARS) (MDA-protein adducts) were measured with the thiobarbituric acid (TBA assay) (Draper et al., 1993, Free Radic. Biol. Med. 15: 353-363). One ml of biological sample was combined with 2.0 ml of 1:1 TCA/TBA (30% trichloracetic acid and 0.67% thiobarbituric acid) in the presence of 200 mM butylated hydroxytoluene (BHT) for spectrophotometric readings (Porter et al., 1976, Biochim. Biophys. ACTA 441: 506-512). The incubation mixture was heated for 20 minutes in boiling water. The samples were centrifuged (2,000 rpm for 10 minutes at 4° C.), and the TBARS concentration was determined based on the absorbance at 532 nm measured with a Beckman DU-7 spectrophotometer at room temperature. Measurements were done at NIEHS, Research Triangle Park, N.C. in the case of Experimental Example 1.
# [2] = test system: Male Fisher 344 rats; test: Plasma MDA, Bioxytech LPO-586 colorimetric assay; settings: both CCl4 doses
# Method: as §1, with “arteries. […]” for “arteries.”
# Two colorimetric-based assays, using third derivative spectroscopy, were also used to measure MDA in plasma. […] One molecule of free MDA combines with 2 molecules of the chromogenic agent to produce a stable chromophore with a maximal absorbance at 586 nm. In both assays, the concentration of MDA was determined with 3rd derivative spectroscopy. […]
# [3] = test system: Male Fisher 344 rats; test: Urinary free plus esterified 8-iso-PGF2α by immunoassay; settings: for Free plus esterified 8-iso PGF2a (by immunoassay): urine
# Method: as §1
# Indomethacin pretreatment: The indomethacin regimen used has been previously shown to inhibit COX activity in rats by 90% (dose of 5 mg/kg s.c. 24 hours, 12 hours, and 2 hours prior to the injection of CCl4) (Jackson, 1989, J. Pharmacol. Exp. Ther. 250: 9-21). An additional booster dose was injected 8 hours after the last injection of CCl4 for the measurements performed 16 hours after treatment with CCl4.
# Meclofenamic acid pretreatment: Meclofenamic acid was injected at a dose of 5 mg/kg i.p. 12 h and 2 h prior to the injection of CCl4.
# as §2
# Urine sample preparation: The day prior to treatment, both experimental and control animals were placed in stainless steel metabolic cages especially designed for urine collection. For Experimental Example 2, animals were placed in metabolic cages immediately after the last injection of indomethacin or meclofenamic acid. Urine was collected (in dark vials) from the animals during the following intervals: 2 to 7 hours and 7 to 16 hours after CCl4 or canola oil (controls) treatment. Urine samples from indomethacin-pretreated rats were collected from 2 to 7 hours and 7 to 16 hours after the injection of CCl4, whereas samples from meclofenamic-acid-pretreated rats were collected only from 2 to 7 hours after the injection. All urine samples were immediately frozen on dry ice and stored at −70° C.
# Urinary 8-iso-PGF2α concentrations were measured by the competitive immunoassay procedure in which 8-iso-PGF2α conjugated to alkaline phosphatase competed with the test analyte for antibody specific for the isoprostane. The anti-8-iso-PGF2α antibody was captured by anti-Fc antibodies immobilized on a microtiter plate. The assay was developed by Assay Designs, Inc., Ann Arbor, Mich. and performed at OXIS Research, Portland, Oreg.
# In an additional method not recited in Example 1, an immunoassay was used to measure the sum of free plus esterified 8-iso-PGF2α. The immunoassay used anti-8-iso-PGF2α antibody was developed by Assay Designs, Inc., Ann Arbor, Mich., and performed at Oxis Research, Portland, Oreg.
smiles,measurement,setting,value
"ClC(Cl)(Cl)Cl [CCl4, Carbon tetrachloride]",TBARS,"[1]; CCl4 120 mg/kg i.p., 2 h",4.1 µM
same,TBARS,"[1]; CCl4 120 mg/kg i.p., 7 h",10.4 µM
same,TBARS,"[1]; CCl4 120 mg/kg i.p., 16 h",13.0 µM
same,TBARS,"[1]; CCl4 1200 mg/kg i.p., 2 h",4.2 µM
same,TBARS,"[1]; CCl4 1200 mg/kg i.p., 7 h",9.4 µM
same,TBARS,"[1]; CCl4 1200 mg/kg i.p., 16 h",10.7 µM
same,"plasma MDA with LPO-586 reagents, 3rd derivative analysis",[2],significant increase was found only for the early time points
same,Free plus esterified 8-iso PGF2a (by immunoassay),"[3]; CCl4 120 mg/kg i.p., 7 h",25.7 ng/mgcreatinine
same,Free plus esterified 8-iso PGF2a (by immunoassay),"[3]; CCl4 120 mg/kg i.p., 16 h",17.4 ng/mgcreatinine
same,Free plus esterified 8-iso PGF2a (by immunoassay),"[3]; CCl4 1200 mg/kg i.p., 7 h",57.0 ng/mgcreatinine
same,Free plus esterified 8-iso PGF2a (by immunoassay),"[3]; CCl4 1200 mg/kg i.p., 16 h",30.4 ng/mgcreatinine
same,increase of urinary 8-iso-PGF2α (immunoassay),"[3]; high dose CCl4, 7 h",10 fold
same,increase of urinary 8-iso-PGF2α (immunoassay),"[3]; high dose CCl4, 16 h",6 fold
